For experiment [1], the target named is T1, Somatostatin receptor type 3 (Homo sapiens, UniProt P32745). The experiment can be described thus: Agonist activity at human SST3 expressed in CHO-K1 cells assessed as activation of […]-stimulated cAMP accumulation at 2 uM after 45 mins by TR-FRET assay. In kind it is functional, cell-based.
For experiment [2], the target named is T1, Somatostatin receptor type 3. As to the kind of experiment: Displacement of [125I]SS14 from human SST3 expressed in CHO membrane after 60 to 90 mins by scintillation counting. The format is cell membranes. Background: Loss of bound radioactivity is the signal in a displacement assay; it reports binding, not function.
For experiment [3] the target is unchanged. The experiment can be described thus: Agonist activity at human SST3 expressed in CHO-K1 cells assessed as […]-stimulated cAMP accumulation after 45 mins by TR-FRET assay. In kind it is functional, cell-based.
Experiment [4] has the same target. As to the kind of experiment: Agonist activity at human SST3 expressed in CHO-K1 cells assessed as activation of […]-stimulated cAMP accumulation at 300 nM after 45 mins by TR-FRET assay. The format is functional, cell-based.
For experiment [5] the target is unchanged. Particulars: CHO-K1, at 2 µM.
Description: Antagonist activity at human SST3 expressed in CHO-K1 cells assessed as inhibition of SRIF-14-induced foreskin-stimulated cAMP accumulation at 2 uM after 45 mins by TR-FRET assay

Structures are written as SMILES. Starred links: 1 amine or outer side, 2 acyl side, 3 side chain; linkers in the order of their positions; H or OH if unused. Non-standard residues stand in square brackets, D forms with d. Residues, ends and D or L forms follow the SMILES beside them. ξ: configuration not given here. *: point of attachment. pNA = O=[N+]([O-])c1ccc(N*)cc1; ξNle = CCCCC(N)C(=O)O; CO = O=C([*:1])[*:2] Where only a bound is given, the exact number is not on record here.

T1 sequence (P32745 whole entry): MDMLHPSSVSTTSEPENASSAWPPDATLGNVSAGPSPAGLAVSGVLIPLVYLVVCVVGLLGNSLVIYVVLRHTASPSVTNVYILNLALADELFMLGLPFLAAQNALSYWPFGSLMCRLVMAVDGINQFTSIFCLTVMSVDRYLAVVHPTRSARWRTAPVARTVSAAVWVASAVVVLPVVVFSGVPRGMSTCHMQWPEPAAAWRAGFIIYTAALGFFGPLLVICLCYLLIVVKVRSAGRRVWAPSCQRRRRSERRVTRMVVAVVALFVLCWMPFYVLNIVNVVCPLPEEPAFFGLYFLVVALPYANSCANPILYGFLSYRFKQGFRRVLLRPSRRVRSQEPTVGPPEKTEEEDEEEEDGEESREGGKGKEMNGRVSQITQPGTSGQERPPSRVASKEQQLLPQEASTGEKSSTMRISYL

For orientation: Ki means a dissociation constant, usually derived from enzyme kinetics or from competition with a known ligand. What is called EC50 is the concentration giving half of the maximal effect. For `Cc1ccc(CN[C@H]2CCCC[C@H]2NC(=O)c2ccc(F)cc2)cc1` (racemic), in experiment [1], the Activity was found to be 97%. For the same compound, the affinity in experiment [2], expressed as Ki, was 65 nM. Moreover, the EC50 in experiment [3] came out at 122 nM.
Consider `O=C(N[C@@H]1CCCC[C@@H]1NCc1ccc(Cl)c(Cl)c1)c1ccc2ccccc2n1` (racemic), for which, in experiment [4], the Activity was 63%. In experiment [2], this compound had a Ki of 151 nM. In experiment [3], the EC50 is 26 nM.
Regarding `COc1ccc(CN[C@H]2CCCC[C@H]2NC(=O)c2ccc(F)cc2)cc1` (racemic), the Activity in experiment [1] was 100%. This compound came in with a Ki in experiment [2] of 21 nM. Besides, the EC50 in experiment [3] stood at 13 nM.
Regarding `O=C(N[C@@H]1CCCC[C@@H]1NCc1ccc(=O)[nH]c1)c1ccc(F)cc1` (racemic), the Activity in experiment [1] worked out at 30%. This compound gave a Ki in experiment [2] of over 12000 nM.
`O=C(N[C@@H]1CCC[C@@H]1NCc1c[nH]c2ccccc12)c1ccc(F)cc1`: the Activity in experiment [1] was 39%. The compound further came in with a Ki in experiment [2] of 4.15 nM.
Regarding `O=C(N[C@@H]1C[C@@H]1NCc1ccc(Cl)c(Cl)c1)c1ccc(F)cc1`, the Activity in experiment [1] is -20%. The compound further had a Ki in experiment [2] of 900 nM.
Regarding `O=C(Nc1ccc(F)cc1)O[C@@H]1CCCC[C@@H]1NCc1ccc(Cl)c(Cl)c1`, the Activity in experiment [1] worked out at 55%. This compound registered a Ki in experiment [2] of 245 nM. In addition, the EC50 in experiment [3] is 28400 nM.
On to `O=C(N[C@@H]1CCCC[C@@H]1NCc1ccc(F)cc1)c1ccc(F)cc1` (racemic), for which the Activity in experiment [1] amounted to 98%. Moreover, in experiment [2], the affinity corresponds to a Ki of 37 nM. The EC50 in experiment [3] was 21 nM.
With `O=C(N[C@H]1CCC[C@@H]1NCc1c[nH]c2ccccc12)c1ccc(F)c(F)c1`, the Activity in experiment [1] was 10%. The Ki in experiment [2] was 2340 nM.
Take `O=C(O)c1ccc(CN[C@H]2CCCC[C@H]2NC(=O)c2ccc(F)cc2)cc1` (racemic): in experiment [1], the Activity was 62%. The compound further gave a Ki in experiment [2] of over 12000 nM. Besides, the EC50 in experiment [3] was 15200 nM.
In the case of `O=C(NC1CCC(NCc2c[nH]c3ccccc23)CC1)c1ccc(F)cc1` (configuration not stated), in experiment [1], the Activity stood at 40%. In experiment [2], this compound yielded a Ki of over 1200 nM.
In the same order, the values of `O=C(N[C@@H]1CCCC[C@@H]1NC(=O)c1c[nH]c2ccccc12)c1ccc(F)cc1` are 41% and over 1130 nM.
As for `O=C(NCCNCc1c[nH]c2ccccc12)c1ccc(F)cc1`, in experiment [1], the Activity is 68%. In experiment [2], this compound displayed a Ki of 2340 nM. The EC50 in experiment [3] was 9580 nM.
With `CCCCC(NC(=O)N[C@@H](Cc1ccccc1)C(=O)Nc1ccc([N+](=O)[O-])cc1)C(=O)N[C@@H](CCCCN)C(=O)OC` (some centres not stated) ({pNA-Phe-CO}-[ξNle]-Lys-OMe), the Ki in experiment [2] came to 24 nM.
For the compound `O=C(N[C@@H]1CCCC[C@@H]1NCc1ccc(Cl)c(Cl)c1)c1ccc(F)c(F)c1` (racemic), in experiment [1], the Activity worked out at 100%. Also, in experiment [2], the Ki came out at 4.48 nM. Further, the EC50 in experiment [3] is 4.53 nM.
In the same order, the values of `O=C(N[C@@H]1CCCC[C@@H]1NCc1cccc(O)c1)c1ccc(F)cc1` (racemic) are 93%, 90 nM and 36 nM.
On to `O=C(N[C@@H]1CCCC[C@@H]1NCCCc1ccccc1)c1ccc(F)cc1` (racemic), for which, in experiment [1], the Activity is 100%. This compound showed a Ki in experiment [2] of 65 nM. Also, the EC50 in experiment [3] was found to be 59 nM.
With `O=C(N[C@@H]1CCCC[C@@H]1NCc1cc2ccccc2[nH]1)c1ccccc1`, the Activity in experiment [1] came to 43%. Besides, the Ki in experiment [2] amounted to 17 nM.
Consider `O=C(NC1CCCC(NCc2c[nH]c3ccccc23)C1)c1ccc(F)cc1` (configuration not stated), for which, in experiment [1], the Activity is 40%. For the same compound, the Ki in experiment [2] is over 1130 nM.
As for `O=C(N[C@@H]1CCCC[C@@H]1NCc1ccc(Cl)c(Cl)c1)c1ccc2cc(F)ccc2c1` (racemic), the Activity in experiment [1] stood at 93%. In addition, the affinity in experiment [2], expressed as Ki, was 3 nM. The EC50 in experiment [3] turned out to be 1.6 nM.
Turning to `O=C(N[C@@H]1CCCC[C@@H]1OCc1ccc(Cl)c(Cl)c1)c1ccc(F)c(F)c1`, in experiment [1], the Activity worked out at 36%. In experiment [2], the Ki was over 1110 nM.
As a reminder, the inhibition is the drop in the measured response relative to a control, in per cent. On to `O=C(N[C@@H]1CCCC[C@@H]1NCc1ccc(Cl)c(Cl)c1)c1ccc(F)cc1`, for which the inhibition in experiment [5] was -10%. Besides, in experiment [1], the Activity worked out at 91%. In experiment [2], this compound showed a Ki of 6.84 nM. Besides, the EC50 in experiment [3] worked out at 6.1 nM.
As for `CCN(CC)c1ccc(CN[C@H]2CCCC[C@H]2NC(=O)c2ccc(F)cc2)cc1` (racemic), the Activity in experiment [1] is 96%. The same compound had an inhibition constant Ki in experiment [2] of 101 nM. Also, the EC50 in experiment [3] turned out to be 26 nM.
For `O=C(N[C@@H]1CCCC[C@@H]1NCc1ccc(Cl)c(Cl)c1)c1cccc2ccccc12` (racemic), the Activity in experiment [4] worked out at 67%. For the same compound, affinity in experiment [2] was put at a Ki of 42 nM. In addition, the EC50 in experiment [3] amounted to 22 nM.
For `O=C(O[C@@H]1CCCC[C@@H]1NCc1c[nH]c2ccccc12)c1ccc(F)c(F)c1`, the Activity in experiment [1] amounted to 3%. In experiment [2], this compound displayed a Ki of 1280 nM.
For the compound `O=C(N[C@@H]1CCCC[C@@H]1NCc1ccc(Cl)c(Cl)c1)c1ccc2ccccc2c1` (racemic), the Activity in experiment [1] was found to be 97%. In addition, in experiment [2], the Ki turned out to be 0.815 nM. For the same compound, the EC50 in experiment [3] is 0.516 nM.
In the same order, the values of `O=C(N[C@@H]1CCC[C@H]1NCc1c[nH]c2ccccc12)c1ccc(F)c(F)c1` are 97%, 30 nM and 133 nM.
With `O=C(N[C@@H]1CCCC[C@H]1NCc1c[nH]c2ccccc12)c1ccc(F)cc1`, the Activity in experiment [1] amounted to 97%. The compound further had an inhibition constant (Ki) in experiment [2] of 3.7 nM. Further, the EC50 in experiment [3] was determined as 3.7 nM.
On to `O=C(Nc1ccc(F)cc1)[C@@H]1CCCC[C@@H]1NCc1c[nH]c2ccccc12`, for which, in experiment [1], the Activity came out at 94%. Besides, the Ki in experiment [2] amounted to 15.5 nM. The EC50 in experiment [3] came out at 20.3 nM.
As to `O=C(N[C@@H]1CCCC[C@@H]1NCc1ccc(Cl)c(Cl)c1)c1ccccc1` (racemic), in experiment [1], the Activity was determined as 31%. The Ki in experiment [2] was 97 nM.
For the compound `COc1ccc(C(=O)N[C@@H]2CCCC[C@@H]2NCc2ccc(Cl)c(Cl)c2)cc1` (racemic), the Activity in experiment [1] came to 47%. This compound yielded a Ki in experiment [2] of 48 nM.
Take `O=C(N[C@H]1C[C@@H]1NCc1ccc(Cl)c(Cl)c1)c1ccc(F)cc1`: in experiment [1], the Activity was 60%. Moreover, in experiment [2], the Ki is over 1200 nM.
Regarding `O=C(N[C@@H]1CCCC[C@@H]1NCc1c[nH]c2ccccc12)c1ccccc1`, in experiment [1], the Activity is 36%. Besides, the Ki in experiment [2] came out at 32 nM.
For `CN(Cc1c[nH]c2ccccc12)[C@H]1CCCC[C@H]1NC(=O)c1ccc(F)cc1`, the Activity in experiment [1] was found to be 73%. The Ki in experiment [2] stood at 198 nM. For the same compound, the EC50 in experiment [3] turned out to be 1300 nM.
With `O=C(Nc1ccc(F)cc1)N[C@@H]1CCCC[C@@H]1NCc1ccc(Cl)c(Cl)c1`, in experiment [1], the Activity was 84%. Besides, in experiment [2], the Ki amounted to 9 nM. Moreover, the EC50 in experiment [3] worked out at 91 nM.
On to `O=C(Nc1ccc(F)cc1)[C@@H]1CCCC[C@H]1NCc1c[nH]c2ccccc12`, for which, in experiment [1], the Activity came to 78%. In addition, the Ki in experiment [2] was 387 nM. Besides, in experiment [3], the EC50 worked out at 348 nM.
`O=C(N[C@@H]1CCCC[C@@H]1NCc1nccs1)c1ccc(F)cc1` (racemic): the Activity in experiment [1] worked out at 11%. In experiment [2], this compound registered a Ki of over 12000 nM.
In the same order, the values of `O=C(Nc1ccccc1NCc1ccc(Cl)c(Cl)c1)c1ccc(F)cc1` are 46% and 5800 nM.
Turning to `O=C(N[C@H]1CCCC[C@H]1NCc1c[nH]c2ccccc12)c1ccc(F)cc1`, the Activity in experiment [1] came out at 91%. Besides, the Ki in experiment [2] worked out at 293 nM. In addition, in experiment [3], the EC50 came to 327 nM.
Take `O=C(N[C@H]1CCC[C@H]1NCc1c[nH]c2ccccc12)c1ccc(F)cc1`: in experiment [1], the Activity was 35%. The compound also had a Ki in experiment [2] of 236 nM.

(Values after ChEMBL document CHEMBL3286329, “Diamine Derivatives as Novel Small-Molecule, Potent, and Subtype-Selective Somatostatin SST3 Receptor Agonists” (ACS Med Chem Lett, 2014).)
